A short description of series [1]: Effect on IL-2 secretion in OVA323-339 peptide-stimulated OT-2 T cell receptor transgenic mouse T cells after 3 days by sandwich ELISA. The conditions noted are these: splenocyte, 72 h. Format: cell-based.
The nature of series [2]: Effect on IFN-gamma secretion in OVA323-339 peptide-stimulated OT-2 T cell receptor transgenic mouse T cells after 3 days by sandwich ELISA. The conditions noted are these: splenocyte, 72 h. The format is cell-based. Background: ELISA stands for enzyme-linked immunosorbent assay.
Series [3] is described as follows: Immunosupressive activity in OVA323-339 peptide-stimulated OT-2 T cell receptor transgenic mouse splenocytes assessed as inhibition of T cell proliferation after 3 days by MTT assay. Format: functional, cell-based. To be noted: Splenocyte, 72 h.
Series [4] is described as follows: Cytotoxicity against OT-2 T cell receptor transgenic mouse splenocytes using propidium iodide by flow cytometry. Format: cell-based. To be noted: splenocyte.

Broadly, the IC50 is the concentration needed to halve the response being measured. Consider `CC(C)CC(=O)O[C@@H]1CC[C@]2(C)[C@H]3CC[C@]45C[C@]4(CC[C@H]5[C@@H]4C[C@H]([C@@H]5O[C@]5(C)CO)OC4O)[C@]3(C)[C@H](O)C[C@H]2C1(C)C` (stereo partly specified), for which the Activity result in series [1], in series [2] and in series [4] was “Non-toxic” each time. Further, the IC50 in series [3] was 1.5 µM.
Regarding `CC(C)CC(=O)O[C@@H]1CC[C@]2(C)[C@H]3CC[C@]45C[C@]4(CC[C@H]5[C@@H]4C[C@H]([C@H](O)C(C)(C)O)OC4O)[C@]3(C)[C@H](O)C[C@H]2C1(C)C` (stereo partly specified), the Activity entry in series [1], in series [2] and in series [4] was “Non-toxic” each time. In addition, the IC50 in series [3] was over 20 µM.
Regarding `CCCCCCCCCC(=O)O[C@@H]1CC[C@]2(C)[C@H]3CC[C@]45C[C@]4(CC[C@H]5[C@@H]4C[C@H]([C@@H]5O[C@]5(C)CO)OC4O)[C@]3(C)[C@H](O)C[C@H]2C1(C)C` (stereo partly specified), the Activity entry in series [1], in series [2] and in series [4] was “Non-toxic” throughout. Besides, the IC50 in series [3] turned out to be 1.8 µM.
Regarding `CCC(C)CCCCCCC(=O)O[C@@H]1CC[C@]2(C)[C@H]3CC[C@]45C[C@]4(CC[C@H]5[C@@H]4C[C@H]([C@@H]5O[C@]5(C)CO)OC4O)[C@]3(C)[C@H](O)C[C@H]2C1(C)C` (stereo partly specified), the Activity entry in series [1], in series [2] and in series [4] was “Non-toxic” in each case. For the same molecule, in series [3], the half-maximal inhibitory concentration (IC50) was 1.5 µM.

These data come from ChEMBL document CHEMBL3352480, “Antiproliferative glabretal-type triterpenoids from the root bark of Dictamnus dasycarpus” (Bioorg Med Chem Lett, 2015).
